Reference: patent US20250325687A1, “CONJUGATE COMPRISING TOLL-LIKE RECEPTOR AGONIST” (MABSOFT THERAPEUTICS (SHANGHAI) CO., LTD., priority 2022, published 2025)

What was measured:
[1] = target: T1, hTLR8 (human Toll-like receptor 8) (Homo sapiens, UniProt Q9NR97); experiment: hTLR8 cell assay (HEK-Blue hTLR8 reporter cells); assay type: cell-based; settings: 24 hours, OD 650 nm
T1 construct: host or cells: HEK-Blue hTLR8 (HEK293-derived reporter cells)
T1 sequence (Q9NR97 27-1041): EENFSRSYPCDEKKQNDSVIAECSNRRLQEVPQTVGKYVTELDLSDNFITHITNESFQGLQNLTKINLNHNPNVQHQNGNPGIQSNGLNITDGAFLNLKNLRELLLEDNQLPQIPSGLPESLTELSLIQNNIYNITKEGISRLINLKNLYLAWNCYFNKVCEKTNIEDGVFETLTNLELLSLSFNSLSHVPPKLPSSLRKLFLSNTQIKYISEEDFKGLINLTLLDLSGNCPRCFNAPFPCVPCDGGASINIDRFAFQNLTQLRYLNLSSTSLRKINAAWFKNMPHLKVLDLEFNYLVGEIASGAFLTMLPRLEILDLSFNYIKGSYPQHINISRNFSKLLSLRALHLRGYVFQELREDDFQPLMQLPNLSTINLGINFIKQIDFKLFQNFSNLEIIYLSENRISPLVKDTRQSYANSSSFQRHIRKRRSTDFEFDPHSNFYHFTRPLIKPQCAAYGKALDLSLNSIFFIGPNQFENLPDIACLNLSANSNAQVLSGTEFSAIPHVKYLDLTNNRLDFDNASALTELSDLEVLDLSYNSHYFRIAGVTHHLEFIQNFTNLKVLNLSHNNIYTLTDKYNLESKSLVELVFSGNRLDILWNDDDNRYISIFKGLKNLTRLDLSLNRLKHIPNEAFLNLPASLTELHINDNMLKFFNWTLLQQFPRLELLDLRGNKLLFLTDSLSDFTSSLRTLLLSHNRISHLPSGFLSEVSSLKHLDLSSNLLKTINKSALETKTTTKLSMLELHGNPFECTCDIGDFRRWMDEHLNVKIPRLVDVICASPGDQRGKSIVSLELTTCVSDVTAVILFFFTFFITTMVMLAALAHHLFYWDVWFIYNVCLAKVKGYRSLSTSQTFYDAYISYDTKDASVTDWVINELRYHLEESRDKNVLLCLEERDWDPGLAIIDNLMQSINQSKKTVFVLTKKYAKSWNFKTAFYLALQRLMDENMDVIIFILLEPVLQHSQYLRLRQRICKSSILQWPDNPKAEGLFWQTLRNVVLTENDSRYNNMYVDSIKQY
Method: (§1) The payload compounds of Formula (II′) were assayed to evaluate their agonistic activity on hTLR7 (human Toll-like receptor 7) and hTLR8 (human Toll-like receptor 8). Reporter cells lines (HEK-Blue hTLR7 and HEK-Blue hTLR8) were obtained from InvivoGen. Cells were cryopreserved in liquid nitrogen per supplier's instruction. Upon test, the cells were thawed, passaged and cultured in the growth media of DMEM supplemented with 10% fetal bovine serum, 1×NEAA, 1 mM Pyruvate, 2 mM glutamine, […] in the presence of the following antibiotics, as shown as Table 1. Test compounds (at desired concentrations diluted) were added to the 96-well assay plate, 0.5 μL per well. Reporter cells were harvested from the tissue culture flasks by incubation in PBS at 37° C. for two minutes after the media in the flask is removed and cells rinsed with PBS. Cells were counted and diluted in the HEK-Blue Detection media at 50000 cells/mL and incubated for 24 hours at 37° C., in a 5% CO2 humidified incubator. Then 20 μL of cell supernatant were added to the assay plate containing the 180 µL of QUANTI-Blue, incubated for 1 hour at 37° C. Optical density at 650 nm was analyzed using an Envision (Perkin Elmer) plate reader.

[2] = target: T2, hTLR7 (human Toll-like receptor 7) (Homo sapiens, UniProt Q9NYK1); experiment: hTLR7 cell assay (HEK-Blue hTLR7 reporter cells); assay type: cell-based; settings: 24 hours, OD 650 nm
T2 construct: host or cells: HEK-Blue hTLR7 (HEK293-derived reporter cells)
T2 sequence (Q9NYK1 27-1049): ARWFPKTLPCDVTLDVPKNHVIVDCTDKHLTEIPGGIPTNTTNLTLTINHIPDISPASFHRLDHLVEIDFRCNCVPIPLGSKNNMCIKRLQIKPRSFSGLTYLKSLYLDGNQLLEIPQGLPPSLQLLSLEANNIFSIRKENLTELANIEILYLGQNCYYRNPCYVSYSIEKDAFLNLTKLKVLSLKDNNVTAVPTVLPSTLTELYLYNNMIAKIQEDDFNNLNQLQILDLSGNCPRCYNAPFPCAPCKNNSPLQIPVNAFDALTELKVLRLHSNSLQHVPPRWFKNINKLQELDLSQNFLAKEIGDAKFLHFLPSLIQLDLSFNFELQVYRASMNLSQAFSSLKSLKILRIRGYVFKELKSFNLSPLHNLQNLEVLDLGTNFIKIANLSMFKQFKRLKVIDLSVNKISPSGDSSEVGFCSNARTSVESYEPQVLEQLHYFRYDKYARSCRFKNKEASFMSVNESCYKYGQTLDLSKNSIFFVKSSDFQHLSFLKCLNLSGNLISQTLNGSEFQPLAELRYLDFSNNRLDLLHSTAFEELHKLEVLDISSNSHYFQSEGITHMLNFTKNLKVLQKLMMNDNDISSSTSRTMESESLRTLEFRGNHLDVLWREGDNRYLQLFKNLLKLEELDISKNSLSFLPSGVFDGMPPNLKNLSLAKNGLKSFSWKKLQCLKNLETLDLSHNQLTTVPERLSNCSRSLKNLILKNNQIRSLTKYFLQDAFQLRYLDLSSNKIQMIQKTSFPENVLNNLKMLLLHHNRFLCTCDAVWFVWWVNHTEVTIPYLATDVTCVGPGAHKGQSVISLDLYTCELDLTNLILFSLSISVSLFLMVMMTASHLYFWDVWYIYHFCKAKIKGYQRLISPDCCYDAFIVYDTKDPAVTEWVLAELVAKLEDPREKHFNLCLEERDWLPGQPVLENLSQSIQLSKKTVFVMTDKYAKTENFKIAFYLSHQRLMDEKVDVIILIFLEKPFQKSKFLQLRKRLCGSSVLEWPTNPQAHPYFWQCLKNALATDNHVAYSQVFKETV
Method: as §1

| Structure (SMILES) | EC50 [1] [µM] | EC50 [2] [µM] |
| --- | --- | --- |
| CCCC(C)c1nc2c(N)nc3cc(Cc4ccccc4)ccc3c2n1CC(C)(C)OCCN (racemic) [Compound 28, 1-(2-(2-aminoethoxy)-2-methylpropyl)-7-benzyl-2-(pentan-2-yl)-1H-imidazo[4,5-c]quinolin-4-amine] | < 5 | > 10 |
| CCOCc1nc2c(N)nc3cc(Cc4ccc(CN)cc4)ccc3c2n1CC(C)(C)O [Compound 1, 1-(4-amino-7-(4-(aminomethyl)benzyl)-2-(ethoxymethyl)-1H-imidazo[4,5-c]quinolin-1-yl)-2-methylpropan-2-ol] | > 20 | > 10 |
| CCOCc1nc2c(N)nc3cc(Cc4cccc(CCN)c4)ccc3c2n1CC(C)(C)O [Compound 5, 1-(4-amino-7-(3-(2-aminoethyl)benzyl)-2-(ethoxymethyl)-1H-imidazo[4,5-c]quinolin-1-yl)-2-methylpropan-2-ol] | 5 to 20 | 1 to 10 |
| CCOCc1nc2c(N)nc3cc(Cc4ccc(C(=O)NCCN)cc4)ccc3c2n1CC(C)(C)O [Compound 6, 4-((4-amino-2-(ethoxymethyl)-1-(2-hydroxy-2-methylpropyl)-1H-imidazo[4,5-c]quinolin-7-yl)methyl)-N-(2-aminoethyl)benzamide] | > 20 | > 10 |
| CCOCc1nc2c(N)nc3cc(Cc4ccc(NC(=O)NCCN)cc4)ccc3c2n1CC(C)(C)O [Compound 7, 1-(4-((4-amino-2-(ethoxymethyl)-1-(2-hydroxy-2-methylpropyl)-1H-imidazo[4,5-c]quinolin-7-yl)methyl)phenyl)-3-(2-aminoethyl)urea] | 5 to 20 | > 10 |
| CCCC(C)c1nc2c(N)nc3cc(Cc4ccc(CCN)cc4)ccc3c2n1CC(C)(C)O (stereo not shown) [Compound 8, 1-(4-amino-7-(4-(2-aminoethyl)benzyl)-2-(pentan-2-yl)-1H-imidazo[4,5-c]quinolin-1-yl)-2-methylpropan-2-ol] | < 5 | 1 to 10 |
| CCC[C@H](C)c1nc2c(N)nc3cc(Cc4ccc(CCN)cc4)ccc3c2n1CC(C)(C)O [Compound 10, (S)-1-(4-amino-7-(4-(2-aminoethyl)benzyl)-2-(pentan-2-yl)-1H-imidazo[4,5-c]quinolin-1-yl)-2-methylpropan-2-ol] | > 20 | > 10 |
| CCCC(C)c1nc2c(N)nc3cc(Cc4ccc(CCCN)cc4)ccc3c2n1CC(C)(C)O (stereo not shown) [Compound 11, 1-(4-amino-7-(4-(3-aminopropyl)benzyl)-2-(pentan-2-yl)-1H-imidazo[4,5-c]quinolin-1-yl)-2-methylpropan-2-ol] | < 5 | 1 to 10 |
| CCCC(C)c1nc2c(N)nc3cc(Cc4cccc(CN)c4)ccc3c2n1CC(C)(C)O (stereo not shown) [Compound 12, 1-(4-amino-7-(3-(aminomethyl)benzyl)-2-(pentan-2-yl)-1H-imidazo[4,5-c]quinolin-1-yl)-2-methylpropan-2-ol] | < 5 | 1 to 10 |
| CCCC(C)c1nc2c(N)nc3cc(Cc4cccc(CCN)c4)ccc3c2n1CC(C)(C)O (stereo not shown) [Compound 13, 1-(4-amino-7-(3-(2-aminoethyl)benzyl)-2-(pentan-2-yl)-1H-imidazo[4,5-c]quinolin-1-yl)-2-methylpropan-2-ol] | < 5 | 1 to 10 |
| CCCC(C)c1nc2c(N)nc3cc(Cc4cccc(CCCN)c4)ccc3c2n1CC(C)(C)O (stereo not shown) [Compound 14, 1-(4-amino-7-(3-(3-aminopropyl)benzyl)-2-(pentan-2-yl)-1H-imidazo[4,5-c]quinolin-1-yl)-2-methylpropan-2-ol] | 5 to 20 | 1 to 10 |
| CCOCc1nc2c(N)nc3cc(Cc4ccc(CCN)cc4)ccc3c2n1CC(C)(C)OCCNC(=O)C(C)(C)N [Compound 21] | > 20 | < 1 |
| CCOCc1nc2c(N)nc3cc(Cc4ccc(CCN)cc4)ccc3c2n1CC(C)(C)OCCNC(=O)C(C)C [Compound 22, N-(2-((1-(4-amino-7-(4-(2-aminoethyl)benzyl)-2-(ethoxymethyl)-1H-imidazo[4,5-c]quinolin-1-yl)-2-methylpropan-2-yl)oxy)ethyl)isobutyramide] | > 20 | 1 to 10 |
| CCOCc1nc2c(N)nc3cc(Cc4ccc(CCN(C)C)cc4)ccc3c2n1CC(C)(C)OCCN [Compound 24, 1-(2-(2-aminoethoxy)-2-methylpropyl)-7-(4-(2-(dimethylamino)ethyl)benzyl)-2-(ethoxymethyl)-1H-imidazo[4,5-c]quinolin-4-amine] | > 20 | > 10 |
| CCOCc1nc2c(N)nc3cc(Cc4ccc(CCN5CCCC5)cc4)ccc3c2n1CC(C)(C)OCCN [Compound 25, 1-(2-(2-aminoethoxy)-2-methylpropyl)-2-(ethoxymethyl)-7-(4-(2-(pyrrolidin-1-yl)ethyl)benzyl)-1H-imidazo[4,5-c]quinolin-4-amine] | > 20 | > 10 |
| CCOCc1nc2c(N)nc3cc(Cc4ccc(CCN)cc4)ccc3c2n1CC(C)(C)OCCN1CCCC1 [Compound 26, 7-(4-(2-aminoethyl)benzyl)-2-(ethoxymethyl)-1-(2-methyl-2-(2-(pyrrolidin-1-yl)ethoxy)propyl)-1H-imidazo[4,5-c]quinolin-4-amine] | > 20 | 1 to 10 |
| CCOCc1nc2c(N)nc3cc(Cc4ccc(CC(N)=O)cc4)ccc3c2n1CC(C)(C)OCCN [Compound 27, 2-[4-({4-amino-1-[2-(2-aminoethoxy)-2-methylpropyl]-2-(ethoxymethyl)imidazo[4,5-c]quinolin-7-yl}methyl)phenyl]acetamide] | > 20 | 1 to 10 |
| CCC[C@H](C)c1nc2c(N)nc3cc(Cc4ccccc4)ccc3c2n1CC(C)(C)OCCN [Compound 29, (S)-1-(2-(2-aminoethoxy)-2-methylpropyl)-7-benzyl-2-(pentan-2-yl)-1H-imidazo[4,5-c]quinolin-4-amine] | > 20 | > 10 |
| CCCCc1nc2c(N)nc3cc(Cc4ccccc4)ccc3c2n1CC(C)(C)OCCN [Compound 31] | < 5 | < 1 |
| CCOCc1nc2c(N)nc3cc(Cc4ccccc4)ccc3c2n1CC(C)(C)OCCCN [Compound 33] | 5 to 20 | 1 to 10 |
